Assay results from ChEMBL document CHEMBL3877302, “Design and Synthesis of a New Series of 4-Heteroarylamino-1'-azaspiro[oxazole-5,3'-bicyclo[2.2.2]octanes as α7 Nicotinic Receptor Agonists. 1. Development of Pharmacophore and Early Structure-Activity Relationship” (J Med Chem, 2016).
pEC50, pIC50: −log10 of the molar value. Activity calls are given as the source filed them. The calls are words filed in the database; no cut-off is given here.

Experiments:
[1] = Metabolic stability in human microsomes assessed as compound remaining measured after 10 mins; type: ADME, Microsome; conditions: read-out: Stability
[2] = Metabolic stability in mouse microsomes assessed as compound remaining measured after 10 mins; type: ADME, Microsome; conditions: read-out: Stability
[3] = Metabolic stability in rat microsomes assessed as compound remaining measured after 10 mins; type: ADME, Microsome; conditions: read-out: Stability
[4] = target: Nicotinic acetylcholine receptor alpha-1/beta-1/delta/epsilon (Rattus norvegicus, UniProt P09660+P25108+P25109+P25110); experiment: Agonist activity at rat alpha1beta1deltaepsilon nAChR expressed in HEK293 cells for 2 mins by FLIPR assay; type: cell-based
[5] = target: Neuronal acetylcholine receptor; alpha3/beta4 (Rattus norvegicus, UniProt P04757+P12392); experiment: Agonist activity at rat alpha3beta4 nAChR expressed in HEK293 cells for 2 mins by FLIPR assay; type: cell-based
Neuronal acetylcholine receptor; alpha3/beta4, sequence (P04757 whole entry): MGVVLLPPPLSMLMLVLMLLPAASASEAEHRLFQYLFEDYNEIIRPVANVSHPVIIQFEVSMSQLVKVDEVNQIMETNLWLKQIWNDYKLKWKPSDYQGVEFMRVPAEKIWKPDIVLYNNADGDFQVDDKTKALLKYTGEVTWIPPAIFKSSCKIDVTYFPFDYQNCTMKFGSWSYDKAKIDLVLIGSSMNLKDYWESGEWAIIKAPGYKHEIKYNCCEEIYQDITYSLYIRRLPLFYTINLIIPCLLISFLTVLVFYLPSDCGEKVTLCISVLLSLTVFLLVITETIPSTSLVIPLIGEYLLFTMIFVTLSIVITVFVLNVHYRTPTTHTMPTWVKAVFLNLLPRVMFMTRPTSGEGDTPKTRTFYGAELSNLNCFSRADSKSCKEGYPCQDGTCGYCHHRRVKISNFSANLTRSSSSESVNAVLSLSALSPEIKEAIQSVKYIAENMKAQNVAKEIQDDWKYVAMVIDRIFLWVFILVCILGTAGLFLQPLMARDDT
Neuronal acetylcholine receptor; alpha3/beta4, sequence (P12392 whole entry): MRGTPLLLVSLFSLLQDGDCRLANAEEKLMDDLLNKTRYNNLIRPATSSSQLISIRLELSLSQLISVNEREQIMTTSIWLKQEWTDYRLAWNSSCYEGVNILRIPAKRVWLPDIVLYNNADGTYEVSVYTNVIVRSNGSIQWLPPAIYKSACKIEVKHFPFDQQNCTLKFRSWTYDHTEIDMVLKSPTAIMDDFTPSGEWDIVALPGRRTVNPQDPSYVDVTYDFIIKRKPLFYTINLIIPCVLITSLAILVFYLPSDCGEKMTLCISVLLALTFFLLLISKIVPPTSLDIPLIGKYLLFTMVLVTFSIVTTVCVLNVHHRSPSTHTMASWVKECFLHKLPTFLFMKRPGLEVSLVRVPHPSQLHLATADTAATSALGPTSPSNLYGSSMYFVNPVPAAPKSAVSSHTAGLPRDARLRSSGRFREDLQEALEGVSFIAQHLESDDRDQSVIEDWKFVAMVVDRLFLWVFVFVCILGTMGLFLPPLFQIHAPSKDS

[6] = target: Neuronal acetylcholine receptor; alpha4/beta2 (Rattus norvegicus, UniProt P09483+P12390); experiment: Agonist activity at rat alpha4beta2 nAChR expressed in HEK293 cells for 2 mins by FLIPR assay; type: cell-based
Neuronal acetylcholine receptor; alpha4/beta2, sequence (P09483 whole entry): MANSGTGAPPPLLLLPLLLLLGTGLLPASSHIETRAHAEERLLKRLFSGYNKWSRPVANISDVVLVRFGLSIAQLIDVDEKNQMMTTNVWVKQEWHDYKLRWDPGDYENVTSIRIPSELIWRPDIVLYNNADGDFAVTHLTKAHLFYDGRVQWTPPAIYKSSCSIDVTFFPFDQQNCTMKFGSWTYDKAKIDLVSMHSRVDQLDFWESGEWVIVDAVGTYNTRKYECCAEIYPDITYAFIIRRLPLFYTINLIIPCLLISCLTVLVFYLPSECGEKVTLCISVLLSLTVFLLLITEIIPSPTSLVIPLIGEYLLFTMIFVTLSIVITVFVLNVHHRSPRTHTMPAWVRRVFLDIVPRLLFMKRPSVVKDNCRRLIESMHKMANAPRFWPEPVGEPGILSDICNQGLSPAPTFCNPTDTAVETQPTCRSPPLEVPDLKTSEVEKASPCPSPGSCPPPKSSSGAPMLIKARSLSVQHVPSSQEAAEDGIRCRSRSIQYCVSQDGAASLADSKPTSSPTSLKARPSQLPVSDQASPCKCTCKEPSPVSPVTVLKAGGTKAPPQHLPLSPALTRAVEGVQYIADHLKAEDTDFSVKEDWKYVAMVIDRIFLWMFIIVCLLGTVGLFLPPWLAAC
Neuronal acetylcholine receptor; alpha4/beta2, sequence (P12390 whole entry): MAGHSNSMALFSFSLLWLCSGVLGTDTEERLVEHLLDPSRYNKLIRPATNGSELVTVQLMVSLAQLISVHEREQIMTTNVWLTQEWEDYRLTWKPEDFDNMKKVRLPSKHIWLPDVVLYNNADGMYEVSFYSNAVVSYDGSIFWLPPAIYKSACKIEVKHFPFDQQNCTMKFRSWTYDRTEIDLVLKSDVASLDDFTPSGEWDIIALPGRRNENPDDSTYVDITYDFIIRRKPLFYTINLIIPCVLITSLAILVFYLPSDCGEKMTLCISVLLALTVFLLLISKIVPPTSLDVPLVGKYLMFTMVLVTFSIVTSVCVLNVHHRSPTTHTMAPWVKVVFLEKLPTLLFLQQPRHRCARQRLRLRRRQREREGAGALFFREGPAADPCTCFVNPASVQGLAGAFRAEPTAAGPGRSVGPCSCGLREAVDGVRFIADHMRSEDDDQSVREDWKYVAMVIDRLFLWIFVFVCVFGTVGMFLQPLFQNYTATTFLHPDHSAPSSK

Cytochrome P450 3A4 [7] = target: T1, Cytochrome P450 3A4 (Homo sapiens, UniProt P08684); experiment: Inhibition of human CYP3A4 using BFC as substrate; type: ADME
T1 sequence (P08684 whole entry): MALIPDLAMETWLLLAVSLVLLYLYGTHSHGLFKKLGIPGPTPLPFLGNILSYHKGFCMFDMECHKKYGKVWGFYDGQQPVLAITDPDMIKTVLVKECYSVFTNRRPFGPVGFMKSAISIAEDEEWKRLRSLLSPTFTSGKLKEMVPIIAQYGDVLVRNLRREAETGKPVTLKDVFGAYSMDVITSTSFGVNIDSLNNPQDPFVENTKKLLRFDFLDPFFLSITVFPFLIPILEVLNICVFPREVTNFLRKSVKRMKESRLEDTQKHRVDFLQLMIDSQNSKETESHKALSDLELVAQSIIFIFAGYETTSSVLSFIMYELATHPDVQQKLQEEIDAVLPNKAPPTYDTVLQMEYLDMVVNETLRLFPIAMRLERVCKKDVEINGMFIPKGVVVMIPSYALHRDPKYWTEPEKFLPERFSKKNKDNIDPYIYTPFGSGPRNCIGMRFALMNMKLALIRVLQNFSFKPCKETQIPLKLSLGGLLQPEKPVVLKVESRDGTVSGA

Cytochrome P450 3A4 [8] = target: T1, Cytochrome P450 3A4; experiment: Inhibition of human CYP3A4 using BZR as substrate; type: ADME
Cytochrome P450 1A2 = target: T2, Cytochrome P450 1A2 (Homo sapiens, UniProt P05177); experiment: Inhibition of human CYP1A2; type: ADME
T2 sequence (P05177 whole entry): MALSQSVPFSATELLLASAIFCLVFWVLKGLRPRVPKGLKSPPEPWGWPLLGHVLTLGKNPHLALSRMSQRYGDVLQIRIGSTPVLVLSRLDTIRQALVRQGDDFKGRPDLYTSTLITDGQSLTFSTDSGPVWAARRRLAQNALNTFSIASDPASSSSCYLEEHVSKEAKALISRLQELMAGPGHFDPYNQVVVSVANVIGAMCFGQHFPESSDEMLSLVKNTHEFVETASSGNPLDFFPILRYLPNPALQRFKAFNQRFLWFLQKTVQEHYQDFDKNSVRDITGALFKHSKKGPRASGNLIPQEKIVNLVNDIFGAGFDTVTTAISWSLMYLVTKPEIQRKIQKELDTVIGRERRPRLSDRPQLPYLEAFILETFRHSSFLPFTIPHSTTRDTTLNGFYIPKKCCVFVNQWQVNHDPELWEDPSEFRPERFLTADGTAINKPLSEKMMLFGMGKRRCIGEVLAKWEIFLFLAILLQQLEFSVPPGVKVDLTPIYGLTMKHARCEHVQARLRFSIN

Cytochrome P450 2B6 = target: T3, Cytochrome P450 2B6 (Homo sapiens, UniProt P20813); experiment: Inhibition of human CYP2B6; type: ADME
T3 sequence (P20813 whole entry): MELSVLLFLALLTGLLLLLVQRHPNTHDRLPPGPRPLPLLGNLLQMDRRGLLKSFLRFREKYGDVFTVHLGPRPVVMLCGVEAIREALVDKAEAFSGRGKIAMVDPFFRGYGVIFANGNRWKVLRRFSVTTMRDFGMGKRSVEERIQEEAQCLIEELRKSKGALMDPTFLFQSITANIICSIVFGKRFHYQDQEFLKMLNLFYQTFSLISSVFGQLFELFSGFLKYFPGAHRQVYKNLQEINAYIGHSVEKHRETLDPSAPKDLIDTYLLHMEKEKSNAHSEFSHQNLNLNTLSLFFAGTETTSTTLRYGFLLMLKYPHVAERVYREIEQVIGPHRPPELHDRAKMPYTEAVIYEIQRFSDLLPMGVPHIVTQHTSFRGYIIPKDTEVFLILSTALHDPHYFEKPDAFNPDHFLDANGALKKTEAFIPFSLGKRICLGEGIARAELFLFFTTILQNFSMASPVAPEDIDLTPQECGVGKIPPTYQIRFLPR

Cytochrome P450 2C8 = target: T4, Cytochrome P450 2C8 (Homo sapiens, UniProt P10632); experiment: Inhibition of human CYP2C8; type: ADME
T4 sequence (P10632 whole entry): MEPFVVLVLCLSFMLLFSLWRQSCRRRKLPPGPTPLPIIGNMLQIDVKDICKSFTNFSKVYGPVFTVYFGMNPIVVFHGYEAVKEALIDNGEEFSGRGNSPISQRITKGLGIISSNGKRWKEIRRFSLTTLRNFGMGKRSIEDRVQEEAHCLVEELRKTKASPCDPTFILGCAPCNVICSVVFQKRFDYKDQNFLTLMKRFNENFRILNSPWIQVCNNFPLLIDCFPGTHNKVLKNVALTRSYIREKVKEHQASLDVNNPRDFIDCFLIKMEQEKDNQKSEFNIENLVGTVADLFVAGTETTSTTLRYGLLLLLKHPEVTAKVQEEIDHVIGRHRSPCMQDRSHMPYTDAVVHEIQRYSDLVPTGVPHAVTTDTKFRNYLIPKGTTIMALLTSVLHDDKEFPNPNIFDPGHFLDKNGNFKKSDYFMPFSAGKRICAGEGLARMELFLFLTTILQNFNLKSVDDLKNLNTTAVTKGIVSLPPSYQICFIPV

Cytochrome P450 2C9 = Cytochrome P450 2C9 (Homo sapiens, UniProt P11712); experiment: Inhibition of human CYP2C9; type: ADME
Cytochrome P450 2C9, sequence (P11712 whole entry): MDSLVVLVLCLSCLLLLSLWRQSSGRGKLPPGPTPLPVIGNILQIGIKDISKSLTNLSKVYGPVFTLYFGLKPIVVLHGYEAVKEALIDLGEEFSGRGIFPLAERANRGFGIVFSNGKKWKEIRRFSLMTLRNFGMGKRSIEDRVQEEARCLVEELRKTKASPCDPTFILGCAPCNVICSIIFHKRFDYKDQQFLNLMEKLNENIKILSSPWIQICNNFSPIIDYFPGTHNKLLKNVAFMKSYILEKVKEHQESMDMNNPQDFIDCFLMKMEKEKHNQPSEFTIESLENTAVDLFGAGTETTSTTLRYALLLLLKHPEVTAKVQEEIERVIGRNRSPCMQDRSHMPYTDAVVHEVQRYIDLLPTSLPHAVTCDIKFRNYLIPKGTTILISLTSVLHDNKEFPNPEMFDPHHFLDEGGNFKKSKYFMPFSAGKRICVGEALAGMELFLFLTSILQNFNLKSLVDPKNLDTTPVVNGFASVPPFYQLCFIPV

Cytochrome P450 2C19 = Cytochrome P450 2C19 (Homo sapiens, UniProt P33261); experiment: Inhibition of human CYP2C19; type: ADME
Cytochrome P450 2C19, sequence (P33261 whole entry): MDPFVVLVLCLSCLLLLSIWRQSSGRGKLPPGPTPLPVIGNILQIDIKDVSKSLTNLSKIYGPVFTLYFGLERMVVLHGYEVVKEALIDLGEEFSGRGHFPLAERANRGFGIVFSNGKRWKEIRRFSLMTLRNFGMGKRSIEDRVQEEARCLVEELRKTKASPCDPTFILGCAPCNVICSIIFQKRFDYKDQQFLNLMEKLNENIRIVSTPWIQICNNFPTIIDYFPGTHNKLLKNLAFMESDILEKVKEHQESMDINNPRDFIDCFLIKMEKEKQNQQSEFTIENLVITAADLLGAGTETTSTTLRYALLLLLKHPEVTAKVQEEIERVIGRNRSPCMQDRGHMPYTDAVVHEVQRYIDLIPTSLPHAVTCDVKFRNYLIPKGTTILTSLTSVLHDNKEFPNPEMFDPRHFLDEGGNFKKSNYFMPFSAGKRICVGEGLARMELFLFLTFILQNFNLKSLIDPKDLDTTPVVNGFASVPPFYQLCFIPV

Cytochrome P450 2D6 = Cytochrome P450 2D6 (Homo sapiens, UniProt P10635); experiment: Inhibition of human CYP2D6; type: ADME
Cytochrome P450 2D6, sequence (P10635 whole entry): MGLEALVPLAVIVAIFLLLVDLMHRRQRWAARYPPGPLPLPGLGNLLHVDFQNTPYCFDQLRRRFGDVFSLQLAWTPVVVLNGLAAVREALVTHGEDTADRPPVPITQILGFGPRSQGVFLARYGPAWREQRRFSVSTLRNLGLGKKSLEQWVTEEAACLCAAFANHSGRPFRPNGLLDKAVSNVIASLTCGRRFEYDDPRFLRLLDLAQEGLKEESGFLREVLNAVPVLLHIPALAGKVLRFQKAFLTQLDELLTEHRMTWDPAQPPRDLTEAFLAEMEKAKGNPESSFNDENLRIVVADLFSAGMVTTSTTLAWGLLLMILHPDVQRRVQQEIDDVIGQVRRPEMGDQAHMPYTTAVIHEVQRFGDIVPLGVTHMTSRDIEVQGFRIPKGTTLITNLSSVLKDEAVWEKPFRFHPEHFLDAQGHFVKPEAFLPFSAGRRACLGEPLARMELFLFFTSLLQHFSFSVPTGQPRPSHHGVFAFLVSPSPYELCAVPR

[9] = Fraction unbound in human plasma; type: ADME, cell-free
[10] = Fraction unbound in rat plasma; type: ADME, cell-free
[11] = Fraction unbound in mouse plasma; type: ADME, cell-free
Mus musculus [12] = experiment: Cognitive enhancing effect in C57Bl/6 mouse at 0.1 to 1 mg/kg, sc administered 30 mins prior to training measured after 24 hrs by novel recognition assay; type: functional, organism-based
Mus musculus [13] = experiment: Cognitive enhancing effect in C57Bl/6 mouse administered subcutaneously for 30 mins prior to training measured after 24 hrs by novel recognition assay; type: functional; conditions: C57Bl/6, sc, read-out: MED
Mus musculus [14] = experiment: Cognitive enhancing effect in C57Bl/6 mouse at 0.3 mg/kg, sc administered 30 mins to 6 hrs prior to training measured after 24 hrs by novel recognition assay; type: functional, organism-based
[15] = Drug uptake in C57Bl/6 mouse NOR model brain at 0.03 mg/kg, sc measured after 0.5 hrs; type: ADME, organism-based; conditions: read-out: Drug uptake
[16] = Drug uptake in C57Bl/6 mouse NOR model brain at 0.1 mg/kg, sc measured after 0.5 hrs; type: ADME, organism-based; conditions: read-out: Drug uptake
[17] = Drug uptake in C57Bl/6 mouse NOR model brain at 0.3 mg/kg, sc measured after 0.5 hrs; type: ADME, organism-based; conditions: read-out: Drug uptake
[18] = Drug uptake in C57Bl/6 mouse NOR model brain at 1 mg/kg, sc measured after 0.5 hrs; type: ADME, organism-based; conditions: read-out: Drug uptake
[19] = Drug uptake in C57Bl/6 mouse NOR model brain at 0.3 mg/kg, sc measured after 2 hrs; type: ADME, organism-based; conditions: read-out: Drug uptake
[20] = Drug uptake in C57Bl/6 mouse NOR model brain at 0.3 mg/kg, sc measured after 6 hrs; type: ADME, organism-based; conditions: read-out: Drug uptake
[21] = Plasma concentration in C57Bl/6 mouse NOR model at 0.03 mg/kg, sc measured after 0.5 hrs; type: ADME, organism-based
[22] = Plasma concentration in C57Bl/6 mouse NOR model at 0.1 mg/kg, sc measured after 0.5 hrs; type: ADME, organism-based
[23] = Plasma concentration in C57Bl/6 mouse NOR model at 0.3 mg/kg, sc measured after 0.5 hrs; type: ADME, organism-based
[24] = Plasma concentration in C57Bl/6 mouse NOR model at 1 mg/kg, sc measured after 0.5 hrs; type: ADME, organism-based
[25] = Plasma concentration in C57Bl/6 mouse NOR model at 0.3 mg/kg, sc measured after 2 hrs; type: ADME, organism-based
[26] = Plasma concentration in C57Bl/6 mouse NOR model at 0.3 mg/kg, sc measured after 6 hrs; type: ADME, organism-based
Mus musculus [27] = experiment: Reversal of NMDAR antagonist MK-801-induced memory deficits in C57Bl/6 mouse at 1 and 3 mg/kg, sc administered 30 mins prior to […] challenge measured after 30 mins by Y maze assay; type: functional, organism-based

c1ccc2cc(NC3=NC[C@@]4(CN5CCC4CC5)O3)ncc2c1
remaining at 10 min [1]: 96% | remaining at 10 min [2]: 1% | remaining at 10 min [3]: 89% | pEC50 [4]: < 4.00 | pEC50 [5]: < 4.00 | pEC50 [6]: < 4.00 | pIC50 (Cytochrome P450 3A4 [7]): < 4.40 | pIC50 (Cytochrome P450 3A4 [8]): < 4.40 | pIC50 (Cytochrome P450 1A2): < 4.40 | pIC50 (Cytochrome P450 2B6): < 4.40 | pIC50 (Cytochrome P450 2C8): < 4.40 | pIC50 (Cytochrome P450 2C9): < 4.40 | pIC50 (Cytochrome P450 2C19): < 4.40 | pIC50 (Cytochrome P450 2D6): < 4.40 | fraction unbound [9]: 0.247 | fraction unbound [10]: 0.269 | fraction unbound [11]: 0.23 | Activity (Mus musculus [12]): Active | minimal effective dose (Mus musculus [13]): 0.1 mg/kg | Activity (Mus musculus [14]): Active | concentration at 0.5 h [15]: 19 nM | concentration at 0.5 h [16]: 57 nM | concentration at 0.5 h [17]: 155 to 182 nM | concentration at 0.5 h [18]: 744 nM | concentration at 2 h [19]: 96 nM | concentration at 6 h [20]: 18 nM | concentration at 0.5 h [21]: 4 nM | concentration at 0.5 h [22]: 16 nM | concentration at 0.5 h [23]: 43 to 69 nM | concentration at 0.5 h [24]: 184 nM | concentration at 2 h [25]: 26 nM | concentration at 6 h [26]: 9 nM | Activity (Mus musculus [27]): Active
